Source: patent US10947215B2, “Heteroaryl compounds and their use as therapeutic drugs” (Dong-A Socio Holdings Co., Ltd., priority 2015, dated 2021)

test system: Ba/F3-CDM cells (Ba/F3 transfected with CD8-MerTK); experiment: In cell MER kinase assay, Ba/F3-CDM cell proliferation without IL-3 (Celltiter-Glo, GI50); assay type: cell-based, murine; details: 48 hours, read-out: Cell growth inhibition (GI50)
Outline: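 Ba/F3 cells expressing CD8-MerTK were grown without IL-3, so that proliferation depends on MerTK. Cells were pre-incubated 24 h, then exposed to compound for 48 h. Viability was read by CellTiter-Glo, with IL-3-supplemented Ba/F3 run in parallel as a nonspecific cytotoxicity control, and GI50 was derived.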

| GI50 | Compound |
| --- | --- |
| < 100 nM | CN1CCN(Cc2ccc(-c3ccc(CO[C@H]4CCC[C@@H]4NC(=O)c4cc(-c5cnn(C6CCOCC6)c5)cnc4N)cc3)cc2)CC1 [Example 380, 2-amino-N-((1S,2S)-2-((4′-((4-methylpiperazin-1-yl)methyl)-[1,1′-biphenyl]-4-yl)methoxy)cyclopentyl)-5-(1-(tetrahydro-2H-pyran-4-yl)-1H-pyrazol-4-vi)nicotinamide] |
| < 100 nM | CN1CCN(Cc2ccc(-c3ccc(CO[C@H]4CCC[C@@H]4NC(=O)c4cc(-c5ccc(N6CCOCC6)cc5)cnc4N)cc3)cc2)CC1 [Example 381, 2-amino-N-((1S,2S)-2-((4′-((4-methylpiperazin-1-yl)methyl)-[1,1′-biphenyl]-4-yl)methoxy)cyclopentyl)-5-(4-morpholinophenyl)nicotinamide] |
| < 100 nM | COc1ccc(-c2cnc(N)c(C(=O)N[C@H]3CCC[C@@H]3OCc3ccc(-c4ccc(CN5CCN(C)CC5)cc4)cc3)c2)cc1OC [Example 383, 2-amino-5-(3,4-dimethoxyphenyl)-N-((1S,2S)-2-((4′-((4-methyl-piperazin-1-yl)methyl)-[1,1′-biphenyl]-4-yl)methoxy)cyclopentyl)nicotinamide] |
| < 100 nM | CN1CCN(Cc2ccc(-c3ccc(CO[C@H]4CCC[C@@H]4NC(=O)c4cc(-c5cc(F)nc(F)c5)cnc4N)cc3)cc2)CC1 [Example 384] |
| < 100 nM | CN1CCN(Cc2ccc(-c3ccc(CO[C@H]4CCC[C@@H]4NC(=O)c4cc(-c5ccc(F)nc5)cnc4N)cc3)cc2)CC1 [Example 386, 6-amino-6′-fluoro-N-((1S,2S)-2-((4′-((4-methylpiperazin-1-yl)methyl)-[1,1′-biphenyl]-4-yl)methoxy)cyclopentyl)-[3,3′-bipyridine]-5-carboxamide] |
| < 100 nM | CN1CCN(Cc2ccc(-c3ccc(CO[C@H]4CCC[C@@H]4NC(=O)c4cc(-c5cnn(C(F)(F)C(F)F)c5)cnc4N)cc3)cc2)CC1 [Example 387, 2-amino-N-((1S,2S)-2-((4′-((4-methylpiperazin-1-yl)methyl)-[1,1′-biphenyl]-4-yl)methoxy)cyclopentyl)-5-(1-(1,1,2,2-tetrafluoroethyl)-1H-pyrazol-4-yl)-nicotinamide] |
| > 1000 nM | CCc1cc(CO[C@H]2CNC[C@@H]2NC(=O)c2cc(-c3ccc(C(N)=O)cc3)cnc2N)ccc1C [Example 391, 2-amino-5-(4-carbamoylphenyl)-N-((3S,4S)-4-((3-ethyl-4-methylbenzyl)oxy)pyrrolidin-3-yl)nicotinamide] |
| > 1000 nM | CCc1cc(CO[C@H]2CNC[C@@H]2NC(=O)c2cc(-c3cccnc3)cnc2N)ccc1C [Example 396, 6-amino-N-((3S,4S)-4-((3-ethyl-4-methylbenzyl)oxy)pyrrolidin-3-yl)-[3,3′-bipyridine]-5-carboxamide] |
| > 1000 nM | CCc1cc(CO[C@H]2CNC[C@@H]2NC(=O)c2cc(-c3ccc(NS(C)(=O)=O)cc3)cnc2N)ccc1C [Example 401, 2-amino-N-((3S,4S)-4-((3-ethyl-4-methylbenzyl)oxy)pyrrolidin-3-yl)-5-(4-(methylsulfonamido)phenyl)nicotinamide] |
| > 1000 nM | CCc1cc(CO[C@H]2CNC[C@@H]2NC(=O)c2cc(-c3cnn(C4CCNCC4)c3)cnc2N)ccc1C [Example 412, 2-amino-N-((3S,4S)-4-((3-ethyl-4-methylbenzyl)oxy)pyrrolidin-3-yl)-5-(1-(piperidin-4-yl)-1H-pyrazol-4-yl)nicotinamide] |
| > 1000 nM | Cc1ccc(CO[C@H]2CNC[C@@H]2NC(=O)c2cc(-c3cnn(C)c3)cnc2N)cc1 [Example 415, 2-amino-5-(1-methyl-1H-pyrazol-4-yl)-N-((3S,4S)-4-((4-methylbenzyl)oxy)pyrrolidin-3-yl)nicotinamide] |
| > 1000 nM | CCc1cc(CO[C@H]2CNC[C@@H]2NC(=O)c2cc(-c3ccc(C(=O)NC4CCN(C)CC4)cc3)cnc2N)ccc1C [Example 419, 2-amino-N-((3S,4S)-4-((3-ethyl-4-methylbenzyl)oxy)pyrrolidin-3-yl)-5-(4-((1-methylpiperidin-4-yl)carbamoyl)phenyl)nicotinamide] |
| < 100 nM | CN1CCN(Cc2ccc(-c3ccc(CO[C@H]4CN(C)C[C@@H]4NC(=O)c4cc(-c5cnn(C)c5)cnc4N)cc3)cc2C(F)(F)F)CC1 [Example 437, 2-amino-5-(1-methyl-1H-pyrazol-4-yl)-N-((3S,4S)-1-methyl-4-((4′-((4-methylpiperazin-1-yl)methyl)-3′-(trifluoromethyl)-[1,1′-biphenyl]-4-yl)-methoxy)pyrrolidin-3-yl)nicotinamide] |
| > 1000 nM | Cn1cc(-c2cnc(N)c(C(=O)N[C@H]3CNC[C@@H]3OCc3ccc(-c4ccc(C(C)(C)N5CCN(CCO)CC5)cc4)cc3)c2)cn1 [Example 440] |
| > 1000 nM | CC(c1ccc(-c2ccc(CO[C@H]3CNC[C@@H]3NC(=O)c3cc(-c4cnn(C)c4)cnc3N)cc2)cc1)N1CCN(CCO)CC1 (stereo partly drawn) [Example 442, 2-amino-N-((3S,4S)-4-((4′-(1-(4-(2-hydroxyethyl)piperazin-1-yl)ethyl)-[1,1′-biphenyl]-4-yl)methoxy)pyrrolidin-3-yl)-5-(1-methyl-1H-pyrazol-4-yl)nicotinamide] |
| < 100 nM | CC(c1ccc(-c2ccc(CO[C@H]3CN(C)C[C@@H]3NC(=O)c3cc(-c4cnn(C)c4)cnc3N)cc2)cc1)N1CCN(CCO)CC1 (stereo partly drawn) [Example 443, 2-amino-N-((3S,4S)-4-((4′-(1-(4-(2-hydroxyethyl)piperazin-1-yl)ethyl)-[1,1′-biphenyl]-4-yl)methoxy)-1-methylpyrrolidin-3-yl)-5-(1-methyl-1H-pyrazol-4-yl)nicotinamide] |
| > 1000 nM | Cn1cc(-c2cnc(N)c(C(=O)N[C@H]3CNC[C@@H]3OCc3ccc(-c4ccc(CN5CCN(CCO)CC5)c(C(F)(F)F)c4)cc3)c2)cn1 [Example 444, 2-amino-N-((3S,4S)-4-((4′-((4-(2-hydroxyethyl)piperazin-1-vi)-methyl)-3′-(trifluoromethyl)-[1,1′-biphenyl]-4-yl)methoxy)pyrrolidin-3-yl)-5-(1-methyl-1H-pyrazol-4-yl)nicotinamide] |
| < 100 nM | CN1C[C@H](NC(=O)c2cc(-c3cnn(C)c3)cnc2N)[C@@H](OCc2ccc(-c3ccc(CN4CCN(CCO)CC4)c(C(F)(F)F)c3)cc2)C1 [Example 445, 2-amino-N-((3S,4S)-4-((4′-((4-(2-hydroxyethyl)piperazin-1-vi)-methyl)-3′-(trifluoromethyl)-[1,1′-biphenyl]-4-yl)methoxy)-1-methylpyrrolidin-3-yl)-5-(1-methyl-1H-pyrazol-4-yl)nicotinamide] |
| > 1000 nM | Cn1cc(-c2cnc(N)c(C(=O)N[C@H]3CNC[C@@H]3OCc3ccc(-c4ccc(CN5CCN(CCO)CC5)cc4)cc3)c2)cn1 [Example 446, 2-amino-N-((3S,4S)-4-((4′-((4-(2-hydroxyethyl)piperazin-1-yl)-methyl)-[1,1′-biphenyl]-4-yl)methoxy)pyrrolidin-3-yl)-5-(1-methyl-1H-pyrazol-4-yl)-nicotinamide] |
| < 100 nM | CN1C[C@H](NC(=O)c2cc(-c3cnn(C)c3)cnc2N)[C@@H](OCc2ccc(-c3ccc(CN4CCN(CCO)CC4)cc3)cc2)C1 [Example 447, 2-amino-N-((3S,4S)-4-((4′-((4-(2-hydroxyethyl)piperazin-1-yl)-methyl)-[1,1′-biphenyl]-4-yl)methoxy)-1-methylpyrrolidin-3-yl)-5-(1-methyl-1H-pyrazol-4-yl)nicotinamide] |
| < 100 nM | CN1CCN(Cc2ccc(-c3ccc(CO[C@H]4COC[C@@H]4NC(=O)c4cc(-c5cnn(C)c5)cnc4N)cc3)cc2)CC1 [Example 448, 2-amino-5-(1-methyl-1H-pyrazol-4-yl)-N-((3S,4R)-4-((4′-((4-methylpiperazin-1-yl)methyl)-[1,1′-biphenyl]-4-yl)methoxy)tetrahydrofuran-3-yl)-nicotinamide] |
| < 100 nM | CN1CCN(Cc2ccc(-c3ccc(CO[C@H]4COC[C@@H]4NC(=O)c4cc(-c5cnn(C)c5)cnc4N)cc3)cc2C(F)(F)F)CC1 [Example 449, 2-amino-5-(1-methyl-1H-pyrazol-4-yl)-N-((3S,4R)-4-((4′-((4-methylpiperazin-1-yl)methyl)-3′-(trifluoromethyl)-[1,1′-biphenyl]-4-yl)methoxy)-tetrahydrofuran-3-yl)nicotinamide] |
| < 100 nM | CN1CCN(C(C)(C)c2ccc(-c3ccc(CO[C@H]4COC[C@@H]4NC(=O)c4cc(-c5cnn(C)c5)cnc4N)cc3)cc2)CC1 [Example 450, 2-amino-5-(1-methyl-1H-pyrazol-4-yl)-N-((3S,4R)-4-((4′-(2-(4-methylpiperazin-1-yl)propan-2-yl)-[1,1′-biphenyl]-4-yl)methoxy)tetrahydrofuran-3-yl)nicotinamide] |
| < 100 nM | Cn1cc(-c2cnc(N)c(C(=O)N[C@H]3COC[C@@H]3OCc3ccc(-c4ccc(CN5CCN(CCO)CC5)cc4)cc3)c2)cn1 [Example 451, 2-amino-N-((3S,4R)-4-((4′-((4-(2-hydroxyethyl)piperazin-1-yl)methyl)-[1,1′-biphenyl]-4-yl)methoxy)tetrahydrofuran-3-yl)-5-(1-methyl-1H-pyrazol-4-yl)nicotinamide] |
| < 100 nM | Cn1cc(-c2cnc(N)c(C(=O)N[C@H]3COC[C@@H]3OCc3ccc(-c4ccc(CN5CCN(CCO)CC5)c(C(F)(F)F)c4)cc3)c2)cn1 [Example 452] |

| Compound | GI50 |
| --- | --- |
| C[C@@H]1CN(Cc2ccc(-c3ccc(CO[C@H]4CCC[C@@H]4NC(=O)c4cc(-c5cnn(C)c5)cnc4N)cc3)cc2)C[C@H](C)N1C [Example 190, 2-amino-5-(1-methyl-1H-pyrazol-4-yl)-N-((1S,2S)-2-((4′-((cis-3,4,5-trimethylpiperazin-1-yl)methyl)-[1,1′-biphenyl]-4-yl)methoxy)cyclopentyl)-nicotinamide] | < 100 nM |

biological target: human c-MER catalytic domain (Homo sapiens (Human), UniProt Q12866); experiment: LanthaScreen TR-FRET biochemical kinase assay (c-MER); details: read-out: Mer TK inhibition (IC50), 10 uM ATP
Sequence (Q12866 587-858): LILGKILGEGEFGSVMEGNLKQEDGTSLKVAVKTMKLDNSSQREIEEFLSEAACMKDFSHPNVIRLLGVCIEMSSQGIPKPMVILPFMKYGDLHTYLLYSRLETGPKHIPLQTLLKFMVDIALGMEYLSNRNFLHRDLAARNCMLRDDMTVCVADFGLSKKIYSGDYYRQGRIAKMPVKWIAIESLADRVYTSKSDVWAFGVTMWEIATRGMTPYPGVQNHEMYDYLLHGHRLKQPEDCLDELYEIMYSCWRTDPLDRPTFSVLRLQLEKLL

| Compound | IC50 |
| --- | --- |
| C[C@@H]1CN(Cc2ccc(-c3ccc(CO[C@H]4CCC[C@@H]4NC(=O)c4cc(-c5cnn(C)c5)cnc4N)cc3)cc2)C[C@H](C)N1C [Example 190, 2-amino-5-(1-methyl-1H-pyrazol-4-yl)-N-((1S,2S)-2-((4′-((cis-3,4,5-trimethylpiperazin-1-yl)methyl)-[1,1′-biphenyl]-4-yl)methoxy)cyclopentyl)-nicotinamide] | < 10 nM |
